According to ChEMBL document CHEMBL4190322, “Structure-based development of novel triazoles and related thiazolotriazoles as anticancer agents and Cdc25A/B phosphatase inhibitors. Synthesis, in vitro biological evaluation, molecular docking and in silico ADME-T studies” (Eur J Med Chem, 2017):
Activity calls are given as the source filed them. No cut-off for these calls is given here.

Assays:
Type in all cases: functional
A498 = experiment: Growth inhibition of human A498 cells at 10 uM after 48 hrs by SRB assay relative to control; details: for inhibition of growth at 10 µM: A498, 48 h, read-out: GI
SF-268 = experiment: Growth inhibition of human SF268 cells at 10 uM after 48 hrs by SRB assay relative to control
UACC-257 = experiment: Growth inhibition of human UACC257 cells at 10 uM after 48 hrs by SRB assay relative to control
OVCAR-3 = experiment: Growth inhibition of human OVCAR3 cells at 10 uM after 48 hrs by SRB assay relative to control
Malme-3M = experiment: Growth inhibition of human MALME-3M cells at 10 uM after 48 hrs by SRB assay relative to control
PC-3 = experiment: Growth inhibition of human PC3 cells at 10 uM after 48 hrs by SRB assay relative to control; details: PC-3, 48 h, read-out: GI
NCI-H522 = experiment: Growth inhibition of human NCI-H522 cells at 10 uM after 48 hrs by SRB assay relative to control; details: NCI-H522, 48 h, read-out: GI
OVCAR-4 = experiment: Growth inhibition of human OVCAR4 cells at 10 uM after 48 hrs by SRB assay relative to control
NCI-H23 = experiment: Growth inhibition of human NCI-H23 cells at 10 uM after 48 hrs by SRB assay relative to control; details: NCI-H23, 48 h, read-out: GI
RPMI-8226 = experiment: Growth inhibition of human RPMI8226 cells at 10 uM after 48 hrs by SRB assay relative to control; details: RPMI-8226, 48 h, read-out: GI
LOX IMVI = experiment: Growth inhibition of human LOXIMVI cells at 10 uM after 48 hrs by SRB assay relative to control; details: read-out: GI
A549 = experiment: Growth inhibition of human A549 cells at 10 uM after 48 hrs by SRB assay relative to control; details: for inhibition of growth at 10 µM: A549, 48 h, read-out: GI
SNB-19 = experiment: Growth inhibition of human SNB19 cells at 10 uM after 48 hrs by SRB assay relative to control; details: for inhibition of growth at 10 µM: SNB-19, 48 h, read-out: GI
HOP-92 = experiment: Growth inhibition of human HOP92 cells at 10 uM after 48 hrs by SRB assay relative to control; details: HOP-92, 48 h, read-out: GI
SR = experiment: Growth inhibition of human SR cells at 10 uM after 48 hrs by SRB assay relative to control; details: read-out: GI
Hs-578T = experiment: Growth inhibition of human Hs 578T cells at 10 uM after 48 hrs by SRB assay relative to control
NCI/ADR-RES = experiment: Growth inhibition of human NCI/ADR-RES cells at 10 uM after 48 hrs by SRB assay relative to control; details: read-out: GI
UO-31 = experiment: Growth inhibition of human UO31 cells at 10 uM after 48 hrs by SRB assay relative to control; details: UO-31, 48 h, read-out: GI
MDA-MB-468 = experiment: Growth inhibition of human MDA-MB-468 cells at 10 uM after 48 hrs by SRB assay relative to control
HL-60 = experiment: Growth inhibition of human HL60 cells at 10 uM after 48 hrs by SRB assay relative to control
SK-MEL-5 = experiment: Growth inhibition of human SK-MEL-5 cells at 10 uM after 48 hrs by SRB assay relative to control; details: for inhibition of growth at 10 µM: SK-MEL-5, 48 h, read-out: GI
OVCAR-8 = experiment: Growth inhibition of human OVCAR8 cells at 10 uM after 48 hrs by SRB assay relative to control
UACC-62 = experiment: Growth inhibition of human UACC62 cells at 10 uM after 48 hrs by SRB assay relative to control
CAKI-1 = experiment: Growth inhibition of human Caki1 cells at 10 uM after 48 hrs by SRB assay relative to control; details: CAKI-1, 48 h, read-out: GI
HCT-116 = experiment: Growth inhibition of human HCT116 cells at 10 uM after 48 hrs by SRB assay relative to control
NCI-H226 = experiment: Growth inhibition of human NCI-H226 cells at 10 uM after 48 hrs by SRB assay relative to control
KM12 = experiment: Growth inhibition of human KM12 cells at 10 uM after 48 hrs by SRB assay relative to control; details: KM12, 48 h, read-out: GI
MCF7 = experiment: Growth inhibition of human MCF7 cells at 10 uM after 48 hrs by SRB assay relative to control; details: for inhibition of growth at 10 µM: MCF7, 48 h, read-out: GI
SK-OV-3 = experiment: Growth inhibition of human SKOV3 cells at 10 uM after 48 hrs by SRB assay relative to control; details: SK-OV-3, 48 h, read-out: GI
HT-29 = experiment: Growth inhibition of human HT-29 cells at 10 uM after 48 hrs by SRB assay relative to control
HOP-62 = experiment: Growth inhibition of human HOP62 cells at 10 uM after 48 hrs by SRB assay relative to control; details: HOP-62, 48 h, read-out: GI
CCRF-CEM = experiment: Growth inhibition of human CCRF-CEM cells at 10 uM after 48 hrs by SRB assay relative to control; details: read-out: GI
NCI-H322M = experiment: Growth inhibition of human NCI-H322M cells at 10 uM after 48 hrs by SRB assay relative to control
K562 = experiment: Growth inhibition of human K562 cells at 10 uM after 48 hrs by SRB assay relative to control; details: K562, 48 h, read-out: GI
MOLT-4 = experiment: Growth inhibition of human MOLT4 cells at 10 uM after 48 hrs by SRB assay relative to control; details: for inhibition of growth at 10 µM: MOLT-4, 48 h, read-out: GI
SNB-75 = experiment: Growth inhibition of human SNB75 cells at 10 uM after 48 hrs by SRB assay relative to control; details: SNB-75, 48 h, read-out: GI
SK-MEL-2 = experiment: Growth inhibition of human SK-MEL-2 cells at 10 uM after 48 hrs by SRB assay relative to control; details: for inhibition of growth at 10 µM: SK-MEL-2, 48 h, read-out: GI
U-251 = experiment: Growth inhibition of human U251 cells at 10 uM after 48 hrs by SRB assay relative to control; details: U-251, 48 h, read-out: GI
786-0 = experiment: Growth inhibition of human 786-0 cells at 10 uM after 48 hrs by SRB assay relative to control
RXF 393 = experiment: Growth inhibition of human RXF393 cells at 10 uM after 48 hrs by SRB assay relative to control

Compound | growth inhibition (GI) (UACC-257) | growth inhibition (GI) (OVCAR-3) | growth inhibition (GI) (Malme-3M) | inhibition of growth at 10 µM (PC-3) | inhibition of growth at 10 µM (NCI-H522) | inhibition of growth at 10 µM (NCI-H23) | inhibition of growth at 10 µM (RPMI-8226) | inhibition of growth at 10 µM (LOX IMVI) | inhibition of growth at 10 µM (HOP-92) | inhibition of growth at 10 µM (SR) | growth inhibition (GI) (Hs-578T) | inhibition of growth at 10 µM (NCI/ADR-RES) | inhibition of growth at 10 µM (UO-31) | growth inhibition (GI) (HL-60) | growth inhibition (GI) (OVCAR-8) | inhibition of growth at 10 µM (CAKI-1) | growth inhibition (GI) (NCI-H226) | inhibition of growth at 10 µM (KM12) | inhibition of growth at 10 µM (SK-OV-3) | inhibition of growth at 10 µM (HOP-62) | other results
COc1ccc(Cc2nnc3sc(SCC(=O)Nc4ccc(Cl)cc4)nn23)cc1 | inactive | inactive | inactive | 14.8% | 8.35% | 9.4% | 7.47% | 8% | 20.3% | 7.04% | inactive | 2.54% | 10.2% | inactive | inactive | 5.77% | inactive | 5.75% | 1.64% | 4.5% | inhibition of growth at 10 µM (A498): 19.6%; growth inhibition (GI) (SF-268): inactive; inhibition of growth at 10 µM (OVCAR-4; OVCAR-4, 48 h, read-out: GI): 5.49%; growth inhibition (GI) (A549): inactive; inhibition of growth at 10 µM (SNB-19): 10.4%; growth inhibition (GI) (MDA-MB-468): inactive; growth inhibition (GI) (SK-MEL-5): inactive; growth inhibition (GI) (UACC-62): inactive; growth inhibition (GI) (HCT-116): inactive; inhibition of growth at 10 µM (MCF7): 10%; growth inhibition (GI) (HT-29): inactive; inhibition of growth at 10 µM (CCRF-CEM): 9.02%; growth inhibition (GI) (NCI-H322M): inactive; inhibition of growth at 10 µM (K562): 2.76%; growth inhibition (GI) (MOLT-4): inactive; inhibition of growth at 10 µM (SNB-75): 20.2%; growth inhibition (GI) (SK-MEL-2): inactive; inhibition of growth at 10 µM (U-251): 4.46%; growth inhibition (GI) (786-0): inactive; growth inhibition (GI) (RXF 393): inactive
COc1ccc(Cc2nnc(SCC(=O)Nc3ccc(C)cc3)n2-c2ccc(C)cc2)cc1 | inactive | inactive | inactive | 32.4% | 13.1% | 2% | 10% | 2.4% | 17.5% | 12.8% | inactive | 5.55% | 31.3% | inactive | inactive | 1.24% | inactive | 8.1% | 12% | 1.2% | inhibition of growth at 10 µM (A498): 46.2%; inhibition of growth at 10 µM (SF-268; SF-268, 48 h, read-out: GI): 4.43%; growth inhibition (GI) (OVCAR-4): inactive; inhibition of growth at 10 µM (A549): 1.85%; inhibition of growth at 10 µM (SNB-19): 3.42%; growth inhibition (GI) (MDA-MB-468): inactive; growth inhibition (GI) (SK-MEL-5): inactive; inhibition of growth at 10 µM (UACC-62; UACC-62, 48 h, read-out: GI): 4.65%; growth inhibition (GI) (HCT-116): inactive; inhibition of growth at 10 µM (MCF7): 3%; growth inhibition (GI) (HT-29): inactive; inhibition of growth at 10 µM (CCRF-CEM): 7.21%; growth inhibition (GI) (NCI-H322M): inactive; inhibition of growth at 10 µM (K562): 26.4%; inhibition of growth at 10 µM (MOLT-4): 39.5%; inhibition of growth at 10 µM (SNB-75): 1.89%; inhibition of growth at 10 µM (SK-MEL-2): 6.19%; inhibition of growth at 10 µM (U-251): 2%; growth inhibition (GI) (786-0): inactive; growth inhibition (GI) (RXF 393): inactive
COc1ccc(Cc2nnc3sc(SCC(=O)Nc4ccc(C)cc4)nn23)cc1 | inactive | inactive | inactive | 11.5% | 12.2% | 3.12% | 1.58% | 16.7% | 23.8% | 7.23% | inactive | 3.81% | 13.6% | inactive | inactive | 11.9% | inactive | 3.51% | 4.35% | 2% | growth inhibition (GI) (A498): inactive; growth inhibition (GI) (SF-268): inactive; growth inhibition (GI) (OVCAR-4): inactive; inhibition of growth at 10 µM (A549): 2.5%; inhibition of growth at 10 µM (SNB-19): 3.61%; growth inhibition (GI) (MDA-MB-468): inactive; inhibition of growth at 10 µM (SK-MEL-5): 1.64%; growth inhibition (GI) (UACC-62): inactive; growth inhibition (GI) (HCT-116): inactive; inhibition of growth at 10 µM (MCF7): 5.79%; inhibition of growth at 10 µM (HT-29; HT-29, 48 h, read-out: GI): 1.67%; inhibition of growth at 10 µM (CCRF-CEM): 7.47%; inhibition of growth at 10 µM (NCI-H322M; read-out: GI): 3.14%; inhibition of growth at 10 µM (K562): 7.25%; inhibition of growth at 10 µM (MOLT-4): 2.19%; inhibition of growth at 10 µM (SNB-75): 12%; inhibition of growth at 10 µM (SK-MEL-2): 14.8%; inhibition of growth at 10 µM (U-251): 6.5%; growth inhibition (GI) (786-0): inactive; inhibition of growth at 10 µM (RXF 393; RXF 393, 48 h, read-out: GI): 1.65%
CCSc1nnc(Cc2ccc(OC)cc2)n1-c1ccc(C)cc1 | inactive | inactive | inactive | 14.3% | 14.6% | 4.3% | 13.5% | 3.04% | 31.6% | 8.17% | inactive | 10.1% | 14.2% | inactive | inactive | 4.82% | inactive | 6.34% | 6.45% | 6% | inhibition of growth at 10 µM (A498): 6.56%; growth inhibition (GI) (SF-268): inactive; growth inhibition (GI) (OVCAR-4): inactive; inhibition of growth at 10 µM (A549): 3.38%; growth inhibition (GI) (SNB-19): inactive; inhibition of growth at 10 µM (MDA-MB-468; MDA-MB-468, 48 h, read-out: GI): 2.5%; inhibition of growth at 10 µM (SK-MEL-5): 2%; growth inhibition (GI) (UACC-62): inactive; inhibition of growth at 10 µM (HCT-116; HCT-116, 48 h, read-out: GI): 4.52%; growth inhibition (GI) (MCF7): inactive; growth inhibition (GI) (HT-29): inactive; inhibition of growth at 10 µM (CCRF-CEM): 16.7%; growth inhibition (GI) (NCI-H322M): inactive; inhibition of growth at 10 µM (K562): 20.2%; inhibition of growth at 10 µM (MOLT-4): 17.7%; inhibition of growth at 10 µM (SNB-75): 4%; inhibition of growth at 10 µM (SK-MEL-2): 1.9%; inhibition of growth at 10 µM (U-251): 1.35%; growth inhibition (GI) (786-0): inactive; growth inhibition (GI) (RXF 393): inactive
